Drawing on ChEMBL document CHEMBL2010688, “Tri- and tetrasubstituted pyrazole derivates: regioisomerism switches activity from p38MAP kinase to important cancer kinases” (J Med Chem, 2012), this text covers IC50 and inhibition for 15 compounds.

For orientation: IC50 means the concentration that gives 50% inhibition.

Assay [1] concerns the target Proto-oncogene tyrosine-protein kinase Src (Homo sapiens, UniProt P12931). Briefly: Inhibition of SRC using poly(Glu,Tyr) as substrate assessed as [33P-gamma]-ATP incorporation after 60 mins by microplate scintillation counting.
For assay [2], the target named is Serine/threonine-protein kinase B-raf (Homo sapiens, UniProt P15056, V600E). Briefly: Inhibition of BRAF V600E mutant using MEK1-KM as substrate assessed as [33P-gamma]-ATP incorporation after 60 mins by microplate scintillation counting.
Chain of Serine/threonine-protein kinase B-raf (Homo sapiens, UniProt P15056, V600E) (P15056 2-766 V600E limits assumed): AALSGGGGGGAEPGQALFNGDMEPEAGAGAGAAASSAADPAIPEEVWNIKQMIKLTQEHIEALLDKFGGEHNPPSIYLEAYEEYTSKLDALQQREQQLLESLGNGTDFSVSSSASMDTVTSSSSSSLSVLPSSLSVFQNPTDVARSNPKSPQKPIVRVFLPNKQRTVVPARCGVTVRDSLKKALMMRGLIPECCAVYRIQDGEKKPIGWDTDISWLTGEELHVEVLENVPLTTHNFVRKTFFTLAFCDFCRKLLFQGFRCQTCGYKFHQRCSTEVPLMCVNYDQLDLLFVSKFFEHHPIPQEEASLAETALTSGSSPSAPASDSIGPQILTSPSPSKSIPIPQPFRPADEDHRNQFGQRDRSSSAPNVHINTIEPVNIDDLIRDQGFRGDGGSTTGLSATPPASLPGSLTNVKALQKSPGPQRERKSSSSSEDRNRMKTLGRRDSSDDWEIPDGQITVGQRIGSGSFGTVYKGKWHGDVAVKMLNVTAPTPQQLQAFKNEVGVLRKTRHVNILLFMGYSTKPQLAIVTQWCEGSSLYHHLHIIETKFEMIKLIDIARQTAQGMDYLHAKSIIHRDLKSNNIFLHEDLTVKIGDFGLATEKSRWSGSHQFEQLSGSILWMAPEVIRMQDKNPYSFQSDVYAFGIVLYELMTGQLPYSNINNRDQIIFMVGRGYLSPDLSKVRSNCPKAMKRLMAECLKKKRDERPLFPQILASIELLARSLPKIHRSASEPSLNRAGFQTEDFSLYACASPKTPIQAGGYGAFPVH
In assay [3] the target is Mitogen-activated protein kinase 14 (Homo sapiens) (UniProt Q16539). Briefly: Inhibition of p38alpha MAP kinase.
Chain of Mitogen-activated protein kinase 14 (Homo sapiens) (Q16539 whole entry): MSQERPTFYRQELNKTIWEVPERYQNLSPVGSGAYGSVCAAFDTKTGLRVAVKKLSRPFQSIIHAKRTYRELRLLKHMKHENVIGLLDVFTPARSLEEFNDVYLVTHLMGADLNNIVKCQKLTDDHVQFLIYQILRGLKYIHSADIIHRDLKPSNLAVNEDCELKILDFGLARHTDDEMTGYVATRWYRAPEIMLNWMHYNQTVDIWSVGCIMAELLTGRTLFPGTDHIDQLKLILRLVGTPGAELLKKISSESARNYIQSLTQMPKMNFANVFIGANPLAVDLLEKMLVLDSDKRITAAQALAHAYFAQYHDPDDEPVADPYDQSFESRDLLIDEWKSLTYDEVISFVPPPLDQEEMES
In assay [4] the target is Vascular endothelial growth factor receptor 2 (Homo sapiens, UniProt P35968). As to the kind of experiment: Inhibition of VEGFR2 using poly(Glu,Tyr) as substrate assessed as [33P-gamma]-ATP incorporation after 60 mins by microplate scintillation counting.
Chain of Vascular endothelial growth factor receptor 2 (P35968 whole entry): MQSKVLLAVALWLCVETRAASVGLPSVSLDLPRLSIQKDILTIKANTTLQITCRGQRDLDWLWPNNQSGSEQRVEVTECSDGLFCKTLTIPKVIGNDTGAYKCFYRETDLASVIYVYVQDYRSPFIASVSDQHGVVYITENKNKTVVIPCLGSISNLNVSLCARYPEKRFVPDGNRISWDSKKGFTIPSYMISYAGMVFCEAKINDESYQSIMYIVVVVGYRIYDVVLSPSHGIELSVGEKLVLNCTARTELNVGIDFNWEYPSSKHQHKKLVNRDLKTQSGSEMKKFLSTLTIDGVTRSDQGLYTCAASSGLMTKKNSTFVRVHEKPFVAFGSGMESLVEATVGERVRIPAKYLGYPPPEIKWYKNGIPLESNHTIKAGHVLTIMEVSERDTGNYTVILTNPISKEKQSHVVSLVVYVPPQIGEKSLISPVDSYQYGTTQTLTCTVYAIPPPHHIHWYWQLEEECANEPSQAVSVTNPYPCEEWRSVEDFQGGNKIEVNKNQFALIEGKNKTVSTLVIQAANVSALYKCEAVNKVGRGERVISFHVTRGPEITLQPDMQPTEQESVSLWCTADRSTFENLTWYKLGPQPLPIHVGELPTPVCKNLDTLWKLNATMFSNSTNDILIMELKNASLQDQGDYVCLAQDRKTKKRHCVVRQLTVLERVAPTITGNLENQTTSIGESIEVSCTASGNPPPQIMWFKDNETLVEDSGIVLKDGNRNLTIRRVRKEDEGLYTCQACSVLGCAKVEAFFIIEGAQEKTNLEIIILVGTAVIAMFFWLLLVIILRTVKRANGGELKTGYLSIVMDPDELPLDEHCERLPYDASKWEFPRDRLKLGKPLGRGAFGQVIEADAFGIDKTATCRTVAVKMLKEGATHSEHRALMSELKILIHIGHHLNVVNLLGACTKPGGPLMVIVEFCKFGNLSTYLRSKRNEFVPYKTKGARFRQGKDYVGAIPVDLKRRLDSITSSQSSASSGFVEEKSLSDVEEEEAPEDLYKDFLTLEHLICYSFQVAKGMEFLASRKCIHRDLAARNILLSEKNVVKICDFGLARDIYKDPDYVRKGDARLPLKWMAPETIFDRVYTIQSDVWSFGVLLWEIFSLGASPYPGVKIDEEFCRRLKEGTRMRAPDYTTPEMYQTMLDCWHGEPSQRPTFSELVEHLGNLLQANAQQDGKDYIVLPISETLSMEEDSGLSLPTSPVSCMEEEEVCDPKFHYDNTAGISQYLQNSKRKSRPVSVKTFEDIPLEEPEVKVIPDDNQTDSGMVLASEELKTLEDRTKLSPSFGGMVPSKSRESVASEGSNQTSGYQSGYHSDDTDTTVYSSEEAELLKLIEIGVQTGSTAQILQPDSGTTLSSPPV
In assay [5] the target is Serine/threonine-protein kinase B-raf (Homo sapiens, UniProt P15056). As to the kind of experiment: Inhibition of wild type B-Raf using MEK1-KM as substrate assessed as [33P-gamma]-ATP incorporation after 60 mins by microplate scintillation counting.
Chain of Serine/threonine-protein kinase B-raf (Homo sapiens, UniProt P15056) (P15056 whole entry): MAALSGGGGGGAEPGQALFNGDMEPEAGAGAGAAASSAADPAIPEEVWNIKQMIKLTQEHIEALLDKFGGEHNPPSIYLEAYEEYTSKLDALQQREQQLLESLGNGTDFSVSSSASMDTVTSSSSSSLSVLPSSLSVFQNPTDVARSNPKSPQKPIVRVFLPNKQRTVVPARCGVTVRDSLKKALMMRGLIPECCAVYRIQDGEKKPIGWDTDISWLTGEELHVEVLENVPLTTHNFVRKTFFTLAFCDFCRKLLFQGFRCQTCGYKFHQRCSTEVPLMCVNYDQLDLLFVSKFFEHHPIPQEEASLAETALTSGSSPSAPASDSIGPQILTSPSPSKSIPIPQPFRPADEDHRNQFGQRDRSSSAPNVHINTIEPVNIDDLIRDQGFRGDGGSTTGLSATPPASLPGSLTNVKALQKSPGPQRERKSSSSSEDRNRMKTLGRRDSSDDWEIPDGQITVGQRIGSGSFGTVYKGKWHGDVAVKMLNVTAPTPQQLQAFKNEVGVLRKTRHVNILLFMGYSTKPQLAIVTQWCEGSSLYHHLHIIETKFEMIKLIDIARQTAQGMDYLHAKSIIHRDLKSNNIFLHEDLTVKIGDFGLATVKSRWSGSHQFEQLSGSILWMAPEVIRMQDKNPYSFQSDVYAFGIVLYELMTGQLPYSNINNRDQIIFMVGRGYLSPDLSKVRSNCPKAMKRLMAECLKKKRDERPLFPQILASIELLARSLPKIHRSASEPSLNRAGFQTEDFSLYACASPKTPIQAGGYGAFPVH

Each structure is given as a SMILES string. Activity calls are given as the source filed them. The rule behind the calls is not given here.

Chain of Proto-oncogene tyrosine-protein kinase Src (P12931 2-536 limits assumed): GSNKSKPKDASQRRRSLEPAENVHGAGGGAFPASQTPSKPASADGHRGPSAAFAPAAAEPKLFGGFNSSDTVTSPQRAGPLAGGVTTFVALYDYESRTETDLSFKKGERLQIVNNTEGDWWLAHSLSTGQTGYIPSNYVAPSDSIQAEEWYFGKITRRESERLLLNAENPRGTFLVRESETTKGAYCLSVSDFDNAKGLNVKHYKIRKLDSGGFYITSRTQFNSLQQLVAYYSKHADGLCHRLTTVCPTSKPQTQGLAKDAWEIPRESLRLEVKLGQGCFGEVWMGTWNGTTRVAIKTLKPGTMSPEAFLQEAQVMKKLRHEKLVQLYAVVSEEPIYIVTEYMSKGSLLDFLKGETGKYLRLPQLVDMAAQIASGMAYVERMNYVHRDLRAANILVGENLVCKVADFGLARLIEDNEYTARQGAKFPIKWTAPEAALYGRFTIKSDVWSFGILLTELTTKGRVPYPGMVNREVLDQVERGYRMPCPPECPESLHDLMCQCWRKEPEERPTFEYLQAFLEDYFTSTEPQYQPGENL

On to `CCOC(=O)c1c(-c2ccncc2)nn(-c2c(Cl)cc(Cl)cc2Cl)c1N`, for which the concentration for half-maximal inhibition (IC50) in assay [1], in assay [2] and in assay [4] was greater than 100000 nM each time. The inhibition entry in assay [3] is “inactive”.

Take `Nc1c(-c2ccc(F)cc2)c(-c2ccncc2)nn1-c1ccc(Cl)cc1`: the IC50 was determined as 23000 nM in assay [1], 800 nM in assay [2] and 1200 nM in assay [4]. Also, the inhibition entry in assay [3] is “inactive”.

`Nc1c(-c2ccc(F)cc2)c(-c2ccncc2)nn1-c1c(Cl)cc(Cl)cc1Cl`: the half-maximal inhibitory concentration (IC50) in assay [1] was 399 nM; in assay [2], 592 nM; in assay [5] it was 270 nM; in assay [4], 34 nM. Moreover, in assay [3], the inhibition entry is “inactive”.

With `Nc1cc(-c2ccncc2)nn1-c1c(Cl)cc(Cl)cc1Cl`, the IC50 in assay [1] and in assay [2] was greater than 100000 nM each time. The inhibition result in assay [3] was “inactive”.

On to `NC(=O)c1c(-c2ccncc2)nn(-c2ccccc2)c1N`, for which the inhibition entry in assay [3] is “inactive”.

For the compound `N#Cc1ccc(-n2nc(-c3ccncc3)c(-c3ccc(F)cc3)c2N)cc1`, in assay [1], the IC50 was greater than 100000 nM. The inhibition entry in assay [3] was “inactive”.

In the case of `Fc1ccc(-c2cn(-c3c(Cl)cc(Cl)cc3Cl)nc2-c2ccncc2)cc1`, the concentration for half-maximal inhibition (IC50) came out at 2000 nM in assay [1], 2500 nM in assay [2] and 210 nM in assay [4]. The inhibition result in assay [3] is “inactive”.

Take `Nc1c(C(=O)O)c(-c2ccncc2)nn1-c1c(Cl)cc(Cl)cc1Cl`: in assay [2], the concentration for half-maximal inhibition (IC50) was greater than 100000 nM. For the same compound, the inhibition entry in assay [3] is “inactive”.

On to `Cc1ccc(-n2nc(-c3ccncc3)c(-c3ccc(F)cc3)c2N)cc1`, for which the IC50 in assay [1] came out at 53000 nM; in assay [2], 890 nM; in assay [4], 2600 nM. The inhibition result in assay [3] is “inactive”.

For `Nc1c(-c2ccc(F)cc2)c(-c2ccncc2)nn1-c1ccc(C(F)(F)F)cc1`, the values for the IC50 in assay [1], in assay [2] and in assay [4] were 6700 nM, 1500 nM and 2400 nM, respectively. Moreover, the inhibition result in assay [3] was “inactive”.

`Nc1c(-c2ccc(F)cc2)c(-c2ccncc2)nn1-c1ccccc1`: the inhibition result in assay [3] is “inactive”.

For `NC(=O)c1c(-c2ccncc2)nn(-c2c(Cl)cc(Cl)cc2Cl)c1N`, in assay [2], the IC50 was greater than 100000 nM. Besides, the inhibition entry in assay [3] is “inactive”.

For `Nc1c(-c2ccc(F)cc2)c(-c2ccncc2)nn1-c1ccc([N+](=O)[O-])cc1`, the IC50 came out at 82000 nM in assay [1], 1400 nM in assay [2] and 1400 nM in assay [4]. Besides, in assay [3], the inhibition entry is “inactive”.

In the case of `COc1ccc(-n2nc(-c3ccncc3)c(-c3ccc(F)cc3)c2N)cc1`, the inhibition result in assay [3] was “inactive”.

`Fc1ccc(-c2cn(-c3ccc(C(F)(F)F)cc3)nc2-c2ccncc2)cc1`: in assay [3], the inhibition result was “inactive”.
